What follows are molecules tested against T1, F508del (Homo sapiens, UniProt P13569, DEL508-508) (assay: Protocol 2: FRET membrane potential optical assay (VIPR), identification of correction compounds). Settings: Table 3; compounds of Table 1 as modulators of CFTR activity; protocol not stated.
T1 construct: expressed in transfected cells
Assay type: cell-based
Summary of the method: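 Correction of the F508del trafficking defect is scored as forskolin (10 μM)/genistein (20 μM)-stimulated Cl^− efflux in NIH3T3 mouse fibroblasts after a 16 hr, 37° C. compound exposure. Depolarization was followed optically using voltage-sensing FRET dyes.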

T1 sequence (P13569 with tags, fused parts or gaps DEL508-508): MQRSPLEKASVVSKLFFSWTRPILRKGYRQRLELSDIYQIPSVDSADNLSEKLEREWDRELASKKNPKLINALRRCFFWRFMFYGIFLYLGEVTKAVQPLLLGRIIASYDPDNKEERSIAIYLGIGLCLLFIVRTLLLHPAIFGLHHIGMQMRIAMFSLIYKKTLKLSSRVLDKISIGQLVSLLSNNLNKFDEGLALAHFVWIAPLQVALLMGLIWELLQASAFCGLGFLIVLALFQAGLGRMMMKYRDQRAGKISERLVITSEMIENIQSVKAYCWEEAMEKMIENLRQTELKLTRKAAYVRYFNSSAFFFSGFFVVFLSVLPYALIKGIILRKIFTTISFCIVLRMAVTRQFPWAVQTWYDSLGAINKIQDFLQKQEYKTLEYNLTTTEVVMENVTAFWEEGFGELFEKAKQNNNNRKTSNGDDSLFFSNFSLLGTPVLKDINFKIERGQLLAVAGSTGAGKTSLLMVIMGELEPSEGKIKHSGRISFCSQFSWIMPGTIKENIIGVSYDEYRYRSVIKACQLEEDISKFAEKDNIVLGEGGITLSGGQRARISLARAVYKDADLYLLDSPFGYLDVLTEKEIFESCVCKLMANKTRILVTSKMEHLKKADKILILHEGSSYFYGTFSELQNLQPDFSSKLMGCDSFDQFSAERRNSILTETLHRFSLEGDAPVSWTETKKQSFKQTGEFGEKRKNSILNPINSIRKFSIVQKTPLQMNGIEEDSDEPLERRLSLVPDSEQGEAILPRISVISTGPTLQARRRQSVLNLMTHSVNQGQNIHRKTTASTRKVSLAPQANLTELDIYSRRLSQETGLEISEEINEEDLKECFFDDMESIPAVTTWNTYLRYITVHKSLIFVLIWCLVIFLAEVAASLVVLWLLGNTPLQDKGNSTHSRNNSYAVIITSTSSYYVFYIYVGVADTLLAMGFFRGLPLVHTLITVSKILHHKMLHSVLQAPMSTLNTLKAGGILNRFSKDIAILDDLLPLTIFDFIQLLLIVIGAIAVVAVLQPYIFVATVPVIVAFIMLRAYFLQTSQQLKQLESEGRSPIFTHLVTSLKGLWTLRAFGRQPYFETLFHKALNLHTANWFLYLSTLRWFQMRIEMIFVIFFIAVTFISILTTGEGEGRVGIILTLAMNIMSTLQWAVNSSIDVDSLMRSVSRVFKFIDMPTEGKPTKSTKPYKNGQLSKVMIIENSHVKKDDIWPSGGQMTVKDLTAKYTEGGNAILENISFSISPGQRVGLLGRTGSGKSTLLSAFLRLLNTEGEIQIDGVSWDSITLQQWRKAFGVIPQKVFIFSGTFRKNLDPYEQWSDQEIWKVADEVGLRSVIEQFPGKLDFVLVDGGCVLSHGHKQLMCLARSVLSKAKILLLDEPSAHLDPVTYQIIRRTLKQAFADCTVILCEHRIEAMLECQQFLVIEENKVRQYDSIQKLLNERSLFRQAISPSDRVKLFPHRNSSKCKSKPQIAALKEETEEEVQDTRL

SMILES	EC30
Cc1cccc(C)c1Cn1nc(-c2cccc3c2ccn3C)cc1C(=O)NS(=O)(=O)c1ccccc1 [Compound 363, N-(benzenesulfonyl)-2-[(2,6-dimethylphenyl)methyl]-5-(1-methylindol-4-yl)pyrazole-3-carboxamide]	+++ (“+++” means <3 uM)
CC(C)COc1cc(F)cc(-c2ccc(C(=O)NS(=O)(=O)c3cccc(N)n3)c(N3C[C@@H](C)CC3(C)C)n2)c1 [Compound 368, N-[(6-amino-2-pyridyl)sulfonyl]-6-(3-fluoro-5-isobutoxy-phenyl)-2-[(4S)-2,2,4-trimethylpyrrolidin-1-yl]pyridine-3-carboxamide]	+++ (“+++” means <3 uM)
Cc1cccc(C)c1Cn1nc(-c2ccccc2C(F)(F)F)cc1C(=O)NS(=O)(=O)c1ccccc1 [Compound 369, N-(benzenesulfonyl)-2-[(2,6-dimethylphenyl)methyl]-5-[2-(trifluoromethyl)phenyl]pyrazole-3-carboxamide]	+++ (“+++” means <3 uM)
Cc1cccc(C)c1Cn1nc(C2CC3CCC2C3)cc1C(=O)NS(=O)(=O)c1cccc(N)c1 (stereo not drawn) [Compound 370, N-(3-aminophenyl)sulfonyl-2-[(2,6-dimethylphenyl)methyl]-5-norbornan-2-yl-pyrazole-3-carboxamide]	+++ (“+++” means <3 uM)
CC(C)COc1cc(F)cc(-c2ccc(C(=O)NS(=O)(=O)c3cccc(N)n3)c(N3C[C@H](C)C[C@H](C)C3)n2)c1 [Compound 371, N-[(6-amino-2-pyridyl)sulfonyl]-2-[(3R,5S)-3,5-dimethyl-1-piperidyl]-6-(3-fluoro-5-isobutoxy-phenyl)pyridine-3-carboxamide]	+++ (“+++” means <3 uM)
CC(C)COc1cc(F)cc(-c2ccc(C(=O)NS(=O)(=O)c3cccc(N)n3)c(Oc3ccccc3)n2)c1 [Compound 376, N-[(6-amino-2-pyridyl)sulfonyl]-6-(3-fluoro-5-isobutoxy-phenyl)-2-phenoxy-pyridine-3-carboxamide]	+++ (“+++” means <3 uM)
CC(C)COc1cc(F)cc(-c2ccc(C(=O)NS(=O)(=O)c3cccc(N)n3)c(N3CCCCC3)n2)c1 [Compound 380, N-[(6-amino-2-pyridyl)sulfonyl]-6-(3-fluoro-5-isobutoxy-phenyl)-2-(1-piperidyl)pyridine-3-carboxamide]	+++ (“+++” means <3 uM)
CCOc1cc(F)cc(-c2ccc(C(=O)NS(=O)(=O)c3ccn[nH]3)c(N3[C@H](C)CC[C@@H]3C)n2)c1 [Compound 382, 2-[(2R,5S)-2,5-dimethylpyrrolidin-1-yl]-6-(3-ethoxy-5-fluoro-phenyl)-N-(1H-pyrazol-5-ylsulfonyl)pyridine-3-carboxamide]	+++ (“+++” means <3 uM)
CC(C)COc1cc(F)cc(-c2ccc(C(=O)NS(=O)(=O)c3cccc(N)n3)c(N3CCC4CCCC43)n2)c1 (stereo not drawn) [Compound 383, 2-(3,3a,4,5,6,6a-hexahydro-2H-cyclopenta[b]pyrrol-1-yl)-N-[(6-amino-2-pyridyl)sulfonyl]-6-(3-fluoro-5-isobutoxy-phenyl)pyridine-3-carboxamide]	+++ (“+++” means <3 uM)
CC(C)CC(C)Oc1cc(-c2ccc(C(=O)NS(=O)(=O)c3cccc(N)n3)c(N3CC(C)CC3(C)C)n2)ccn1 (stereo not drawn) [Compound 384, N-[(6-amino-2-pyridyl)sulfonyl]-6-[2-(1,3-dimethylbutoxy)-4-pyridyl]-2-(2,2,4-trimethylpyrrolidin-1-yl)pyridine-3-carboxamide]	+++ (“+++” means <3 uM)
COC(=O)[C@@H]1CCCN1c1nc(-c2cc(F)cc(OCC(C)C)c2)ccc1C(=O)NS(=O)(=O)c1cccc(N)n1 [Compound 385, methyl (2S)-1-[3-[(6-amino-2-pyridyl)sulfonylcarbamoyl]-6-(3-fluoro-5-isobutoxy-phenyl)-2-pyridyl]pyrrolidine-2-carboxylate]	+++ (“+++” means <3 uM)
CC(C)COc1ccnc(-c2ccc(C(=O)NS(=O)(=O)c3cccc(N)n3)c(N3[C@H](C)CC[C@@H]3C)n2)c1 [Compound 389, N-[(6-amino-2-pyridyl)sulfonyl]-2-[(2S,5R)-2,5-dimethylpyrrolidin-1-yl]-6-(4-isobutoxy-2-pyridyl)pyridine-3-carboxamide]	+++ (“+++” means <3 uM)
Cc1ccc(-c2ccc(C(=O)NS(=O)(=O)c3ccc[nH]c3=O)c(N3[C@H](C)CC[C@@H]3C)n2)cc1 [Compound 392, 2-[(2R,5S)-2,5-dimethylpyrrolidin-1-yl]-N-[(2-oxo-1H-pyridin-3-yl)sulfonyl]-6-(p-tolyl)pyridine-3-carboxamide]	++ (“++” means between 3 uM and 10 uM)

Next, values leading:

EC30	SMILES
+++ (“+++” means <3 uM)	Cc1cc(C)c(Cn2c(C(=O)NS(=O)(=O)c3cccc(N)c3)cc3c(Cl)cccc32)c(C)c1 [Compound 362, N-(3-aminophenyl)sulfonyl-4-chloro-1-[(2,4,6-trimethylphenyl)methyl]indole-2-carboxamide]
+-F+	Cc1cc(C)c(Oc2nc(-c3ccccc3C(C)(C)C)ccc2C(=O)NS(=O)(=O)c2cccc(N)n2)c(C)c1 [Compound 364, N-[(6-amino-2-pyridyl)sulfonyl]-6-(2-tert-butylphenyl)-2-(2,4,6-trimethylphenoxy)pyridine-3-carboxamide]
+++ (“+++” means <3 uM)	COc1ncccc1S(=O)(=O)NC(=O)c1ccc(C2(C)CC2)nc1Oc1c(C)cc(C)cc1C [Compound 365, N-[(2-methoxy-3-pyridyl)sulfonyl]-6-(1-methylcyclopropyl)-2-(2,4,6-trimethylphenoxy)pyridine-3-carboxamide]
+++ (“+++” means <3 uM)	Cc1cc(C)c(Cn2nc(-c3ccccc3)cc2C(=O)NS(=O)(=O)c2cccc(N)c2)c(C)c1 [Compound 366]
+++ (“+++” means <3 uM)	Cc1cc(C)c(Cc2cn(C(C)(C)C)nc2C(=O)NS(=O)(=O)c2cccc(N)c2)c(C)c1 [Compound 367]
++ (“++” means between 3 uM and 10 uM)	COCCNc1cccc(S(=O)(=O)NC(=O)c2ccc(C)nc2Oc2c(C)cc(C)cc2C)n1 [Compound 372, N-[[6-(2-methoxyethylamino)-2-pyridyl]sulfonyl]-6-methyl-2-(2,4,6-trimethylphenoxy)pyridine-3-carboxamide]
++ (“++” means between 3 uM and 10 uM)	C[C@@H]1CC[C@H](C)N1c1nc(C(C)(C)C)ccc1C(=O)NS(=O)(=O)c1cccc(N)n1 [Compound 373, N-[(6-amino-2-pyridyl)sulfonyl]-6-tert-butyl-2-[(2S,5R)-2,5-dimethylpyrrolidin-1-yl]pyridine-3-carboxamide]
+++ (“+++” means <3 uM)	COc1ccc(-c2ccc(C(=O)NS(=O)(=O)c3cc[nH]n3)c(Oc3c(C)cc(C)cc3C)n2)c(F)c1 [Compound 374, 6-(2-fluoro-4-methoxy-phenyl)-N-(1H-pyrazol-3-ylsulfonyl)-2-(2,4,6-trimethylphenoxy)pyridine-3-carboxamide]
+++ (“+++” means <3 uM)	COc1cc(-c2ccc(C(=O)NS(=O)(=O)c3cccc(N)n3)c(Oc3c(C)cc(C)cc3C)n2)ccc1C [Compound 375, N-[(6-amino-2-pyridyl)sulfonyl]-6-(3-methoxy-4-methyl-phenyl)-2-(2,4,6-trimethylphenoxy)pyridine-3-carboxamide]
+++ (“+++” means <3 uM)	Cc1cc(C)c(CN2Cc3ccccc3C2(C)C(=O)NS(=O)(=O)c2ncccc2O)c(C)c1 (stereo not drawn) [Compound 377, N-[(3-hydroxy-2-pyridyl)sulfonyl]-1-methyl-2-[(2,4,6-trimethylphenyl)methyl]isoindoline-1-carboxamide]
+++ (“+++” means <3 uM)	Cc1cc(C)c(CN2Cc3ccccc3C2(C)C(=O)NS(=O)(=O)c2ccn[nH]2)c(C)c1 (stereo not drawn) [Compound 378, 1-methyl-N-(1H-pyrazol-5-ylsulfonyl)-2-[(2,4,6-trimethylphenyl)methyl]isoindoline-1-carboxamide]
+++ (“+++” means <3 uM)	COc1c(F)cc(Cl)cc1-c1cc(C(=O)NS(=O)(=O)c2ccccc2)n(Cc2c(C)cccc2C)n1 [Compound 379, N-(benzenesulfonyl)-5-(5-chloro-3-fluoro-2-methoxy-phenyl)-2-[(2,6-dimethylphenyl)methyl]pyrazole-3-carboxamide]
++ (“++” means between 3 uM and 10 uM)	Cc1ccc(Oc2nc(-c3cnn(CC(C)C)c3)ccc2C(=O)NS(=O)(=O)c2cccc(N)n2)c(C)c1 [Compound 381, N-[(6-amino-2-pyridyl)sulfonyl]-2-(2,4-dimethylphenoxy)-6-(1-isobutylpyrazol-4-yl)pyridine-3-carboxamide]
+++ (“+++” means <3 uM)	Cc1cc(C)c(Oc2nc(-c3cccc4c3ccn4C)ccc2C(=O)NS(=O)(=O)c2cccc(N)n2)c(C)c1 [Compound 386, N-[(6-amino-2-pyridyl)sulfonyl]-6-(1-methylindol-4-yl)-2-(2,4,6-trimethylphenoxy)pyridine-3-carboxamide]
+++ (“+++” means <3 uM)	COc1ncc(F)cc1-c1ccc(C(=O)NS(=O)(=O)c2cccc(N)n2)c(Oc2c(C)cc(C)cc2C)n1 [Compound 387, N-[(6-amino-2-pyridyl)sulfonyl]-6-(5-fluoro-2-methoxy-3-pyridyl)-2-(2,4,6-trimethylphenoxy)pyridine-3-carboxamide]
++ (“++” means between 3 uM and 10 uM)	Cc1cc(C)c(Oc2nc(-c3cccc(CC#N)c3)ccc2C(=O)NS(=O)(=O)c2cccc(N)n2)c(C)c1 [Compound 388, N-[(6-amino-2-pyridyl)sulfonyl]-6-[3-(cyanomethyl)phenyl]-2-(2,4,6-trimethylphenoxy)pyridine-3-carboxamide]
+++ (“+++” means <3 uM)	CC(C)Oc1ccc(-c2nc(N3[C@H](C)CC[C@@H]3C)c(C(=O)NS(=O)(=O)c3cccc(N)n3)cc2Br)cn1 [Compound 390, N-[(6-amino-2-pyridyl)sulfonyl]-5-bromo-2-[(2S,5R)-2,5-dimethylpyrrolidin-1-yl]-6-(6-isopropoxy-3-pyridyl)pyridine-3-carboxamide]

— patent publication US10758534B2 (Vertex Pharmaceuticals Incorporated, priority 2014, dated 2020)
